As a reminder, the IC50 is the concentration needed to halve the response being measured.

A short description of test [1]: Cytotoxicity against human H460 cells. The format is functional, cell-based. The settings on record: NCI-H460.
Another test deals with T1, Histone deacetylase 11 (Homo sapiens, UniProt Q96DB2).
T1 sequence (Q96DB2 whole entry): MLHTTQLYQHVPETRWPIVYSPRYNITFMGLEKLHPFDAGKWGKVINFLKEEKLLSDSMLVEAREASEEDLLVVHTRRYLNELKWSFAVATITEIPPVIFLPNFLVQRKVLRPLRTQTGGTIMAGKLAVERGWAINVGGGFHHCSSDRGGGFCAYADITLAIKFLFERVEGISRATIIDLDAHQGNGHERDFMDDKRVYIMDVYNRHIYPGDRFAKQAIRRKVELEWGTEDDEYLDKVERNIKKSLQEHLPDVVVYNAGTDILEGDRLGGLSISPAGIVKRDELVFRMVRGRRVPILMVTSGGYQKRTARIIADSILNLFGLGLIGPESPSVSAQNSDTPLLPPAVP
In words: Inhibition of human HDAC11 using RHKK(Ac) as substrate by fluorimetric analysis.

Test [2] concerns the target T2, Polyamine deacetylase HDAC10 (Homo sapiens, UniProt Q969S8).
T2 sequence (Q969S8 whole entry): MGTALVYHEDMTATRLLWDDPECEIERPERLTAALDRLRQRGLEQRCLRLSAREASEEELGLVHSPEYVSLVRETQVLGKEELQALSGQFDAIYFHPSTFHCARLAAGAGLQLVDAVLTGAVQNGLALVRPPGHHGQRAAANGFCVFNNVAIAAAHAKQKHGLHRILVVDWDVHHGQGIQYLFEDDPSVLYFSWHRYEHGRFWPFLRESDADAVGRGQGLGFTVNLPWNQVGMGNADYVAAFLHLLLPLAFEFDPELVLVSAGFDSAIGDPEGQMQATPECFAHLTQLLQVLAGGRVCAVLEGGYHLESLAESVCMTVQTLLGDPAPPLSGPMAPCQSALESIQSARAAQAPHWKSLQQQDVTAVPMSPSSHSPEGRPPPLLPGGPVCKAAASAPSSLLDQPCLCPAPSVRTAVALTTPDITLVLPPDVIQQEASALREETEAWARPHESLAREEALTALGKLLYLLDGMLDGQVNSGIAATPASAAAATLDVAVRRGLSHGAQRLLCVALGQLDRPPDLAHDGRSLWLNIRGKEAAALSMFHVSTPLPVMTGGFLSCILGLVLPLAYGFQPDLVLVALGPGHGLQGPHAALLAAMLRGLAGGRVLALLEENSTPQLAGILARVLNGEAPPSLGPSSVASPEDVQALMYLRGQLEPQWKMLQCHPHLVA
In words: Inhibition of human HDAC10 using RHKK(Ac) as substrate by fluorimetric analysis.

The target in test [3] is T3, Protein deacetylase HDAC6 (Homo sapiens, UniProt Q9UBN7).
T3 sequence (Q9UBN7 whole entry): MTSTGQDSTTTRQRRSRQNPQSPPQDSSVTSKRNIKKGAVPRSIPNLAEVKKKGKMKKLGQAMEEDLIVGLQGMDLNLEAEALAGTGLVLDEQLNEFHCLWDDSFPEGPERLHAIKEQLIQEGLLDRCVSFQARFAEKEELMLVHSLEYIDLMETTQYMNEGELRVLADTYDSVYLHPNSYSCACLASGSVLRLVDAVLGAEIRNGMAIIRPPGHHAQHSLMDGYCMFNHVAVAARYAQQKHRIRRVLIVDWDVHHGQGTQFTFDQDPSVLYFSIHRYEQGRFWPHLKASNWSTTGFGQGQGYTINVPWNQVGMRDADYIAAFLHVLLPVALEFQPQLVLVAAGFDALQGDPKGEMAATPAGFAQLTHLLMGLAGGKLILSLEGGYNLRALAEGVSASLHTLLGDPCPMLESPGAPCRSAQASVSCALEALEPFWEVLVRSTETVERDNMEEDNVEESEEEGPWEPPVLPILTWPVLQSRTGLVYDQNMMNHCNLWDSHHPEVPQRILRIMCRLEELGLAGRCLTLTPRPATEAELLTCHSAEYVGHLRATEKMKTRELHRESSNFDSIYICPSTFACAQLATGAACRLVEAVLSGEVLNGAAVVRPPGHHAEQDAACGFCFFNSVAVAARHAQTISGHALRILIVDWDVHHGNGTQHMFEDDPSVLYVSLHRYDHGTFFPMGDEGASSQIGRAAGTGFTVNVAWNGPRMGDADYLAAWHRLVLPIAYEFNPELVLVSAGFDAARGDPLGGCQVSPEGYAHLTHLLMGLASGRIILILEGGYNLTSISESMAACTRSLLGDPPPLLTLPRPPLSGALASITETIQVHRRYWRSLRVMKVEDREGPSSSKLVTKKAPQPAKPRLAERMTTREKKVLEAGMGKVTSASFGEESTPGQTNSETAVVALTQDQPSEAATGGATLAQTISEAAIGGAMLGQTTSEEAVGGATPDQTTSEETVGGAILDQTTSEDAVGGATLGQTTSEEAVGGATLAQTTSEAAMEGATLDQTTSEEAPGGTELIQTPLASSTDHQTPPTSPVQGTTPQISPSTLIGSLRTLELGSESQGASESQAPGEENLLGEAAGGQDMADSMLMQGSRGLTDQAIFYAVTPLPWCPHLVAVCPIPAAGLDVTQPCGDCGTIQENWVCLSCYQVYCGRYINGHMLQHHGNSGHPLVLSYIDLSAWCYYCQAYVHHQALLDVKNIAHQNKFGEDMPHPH
In words: Inhibition of human HDAC6 using RHKK(Ac) as substrate by fluorimetric analysis.

Test [4] has as its target Histone deacetylase 3/Nuclear receptor corepressor 2 (HDAC3/NCoR2) (Homo sapiens, UniProt O15379). In words: Inhibition of human HDAC3/NCOR2 using RHKK(Ac) as substrate by fluorimetric analysis. The class given is protein-complex assay.
In the next test the target is Histone deacetylase 2 (Homo sapiens, UniProt Q92769). Kind of test: Inhibition of human HDAC2 using RHKK(Ac) as substrate by fluorimetric analysis.
Sequence of Histone deacetylase 2 (Q92769 whole entry): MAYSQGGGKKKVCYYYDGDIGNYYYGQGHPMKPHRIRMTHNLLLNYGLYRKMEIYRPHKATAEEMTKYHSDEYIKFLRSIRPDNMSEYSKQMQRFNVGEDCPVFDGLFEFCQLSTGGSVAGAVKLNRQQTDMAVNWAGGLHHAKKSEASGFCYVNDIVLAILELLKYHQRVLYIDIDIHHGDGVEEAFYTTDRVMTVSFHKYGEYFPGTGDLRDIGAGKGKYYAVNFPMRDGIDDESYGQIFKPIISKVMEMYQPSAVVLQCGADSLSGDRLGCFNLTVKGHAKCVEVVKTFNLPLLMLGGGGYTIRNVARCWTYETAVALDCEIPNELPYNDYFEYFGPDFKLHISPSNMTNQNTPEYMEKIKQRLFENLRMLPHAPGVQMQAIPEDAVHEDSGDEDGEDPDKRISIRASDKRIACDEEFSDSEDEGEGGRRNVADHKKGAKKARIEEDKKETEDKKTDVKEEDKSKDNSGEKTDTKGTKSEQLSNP
The next test concerns the target Histone deacetylase 1 (Homo sapiens, UniProt Q13547). Kind of test: Inhibition of human HDAC1 using RHKK(Ac) as substrate by fluorimetric analysis.

Sequence of Histone deacetylase 3/Nuclear receptor corepressor 2 (HDAC3/NCoR2) (O15379 whole entry): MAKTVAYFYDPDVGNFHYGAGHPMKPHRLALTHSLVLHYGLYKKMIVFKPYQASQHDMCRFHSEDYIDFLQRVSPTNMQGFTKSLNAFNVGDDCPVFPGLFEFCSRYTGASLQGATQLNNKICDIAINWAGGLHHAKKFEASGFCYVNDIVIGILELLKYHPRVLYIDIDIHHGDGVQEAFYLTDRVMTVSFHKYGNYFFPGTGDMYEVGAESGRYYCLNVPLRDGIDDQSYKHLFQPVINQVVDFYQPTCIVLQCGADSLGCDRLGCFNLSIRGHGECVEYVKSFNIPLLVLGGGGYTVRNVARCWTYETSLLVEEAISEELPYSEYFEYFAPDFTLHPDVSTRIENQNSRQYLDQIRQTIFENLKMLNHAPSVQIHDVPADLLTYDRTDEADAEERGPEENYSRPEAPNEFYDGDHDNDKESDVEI
Sequence of Histone deacetylase 3/Nuclear receptor corepressor 2 (HDAC3/NCoR2) (Q9Y618 whole entry, further chain): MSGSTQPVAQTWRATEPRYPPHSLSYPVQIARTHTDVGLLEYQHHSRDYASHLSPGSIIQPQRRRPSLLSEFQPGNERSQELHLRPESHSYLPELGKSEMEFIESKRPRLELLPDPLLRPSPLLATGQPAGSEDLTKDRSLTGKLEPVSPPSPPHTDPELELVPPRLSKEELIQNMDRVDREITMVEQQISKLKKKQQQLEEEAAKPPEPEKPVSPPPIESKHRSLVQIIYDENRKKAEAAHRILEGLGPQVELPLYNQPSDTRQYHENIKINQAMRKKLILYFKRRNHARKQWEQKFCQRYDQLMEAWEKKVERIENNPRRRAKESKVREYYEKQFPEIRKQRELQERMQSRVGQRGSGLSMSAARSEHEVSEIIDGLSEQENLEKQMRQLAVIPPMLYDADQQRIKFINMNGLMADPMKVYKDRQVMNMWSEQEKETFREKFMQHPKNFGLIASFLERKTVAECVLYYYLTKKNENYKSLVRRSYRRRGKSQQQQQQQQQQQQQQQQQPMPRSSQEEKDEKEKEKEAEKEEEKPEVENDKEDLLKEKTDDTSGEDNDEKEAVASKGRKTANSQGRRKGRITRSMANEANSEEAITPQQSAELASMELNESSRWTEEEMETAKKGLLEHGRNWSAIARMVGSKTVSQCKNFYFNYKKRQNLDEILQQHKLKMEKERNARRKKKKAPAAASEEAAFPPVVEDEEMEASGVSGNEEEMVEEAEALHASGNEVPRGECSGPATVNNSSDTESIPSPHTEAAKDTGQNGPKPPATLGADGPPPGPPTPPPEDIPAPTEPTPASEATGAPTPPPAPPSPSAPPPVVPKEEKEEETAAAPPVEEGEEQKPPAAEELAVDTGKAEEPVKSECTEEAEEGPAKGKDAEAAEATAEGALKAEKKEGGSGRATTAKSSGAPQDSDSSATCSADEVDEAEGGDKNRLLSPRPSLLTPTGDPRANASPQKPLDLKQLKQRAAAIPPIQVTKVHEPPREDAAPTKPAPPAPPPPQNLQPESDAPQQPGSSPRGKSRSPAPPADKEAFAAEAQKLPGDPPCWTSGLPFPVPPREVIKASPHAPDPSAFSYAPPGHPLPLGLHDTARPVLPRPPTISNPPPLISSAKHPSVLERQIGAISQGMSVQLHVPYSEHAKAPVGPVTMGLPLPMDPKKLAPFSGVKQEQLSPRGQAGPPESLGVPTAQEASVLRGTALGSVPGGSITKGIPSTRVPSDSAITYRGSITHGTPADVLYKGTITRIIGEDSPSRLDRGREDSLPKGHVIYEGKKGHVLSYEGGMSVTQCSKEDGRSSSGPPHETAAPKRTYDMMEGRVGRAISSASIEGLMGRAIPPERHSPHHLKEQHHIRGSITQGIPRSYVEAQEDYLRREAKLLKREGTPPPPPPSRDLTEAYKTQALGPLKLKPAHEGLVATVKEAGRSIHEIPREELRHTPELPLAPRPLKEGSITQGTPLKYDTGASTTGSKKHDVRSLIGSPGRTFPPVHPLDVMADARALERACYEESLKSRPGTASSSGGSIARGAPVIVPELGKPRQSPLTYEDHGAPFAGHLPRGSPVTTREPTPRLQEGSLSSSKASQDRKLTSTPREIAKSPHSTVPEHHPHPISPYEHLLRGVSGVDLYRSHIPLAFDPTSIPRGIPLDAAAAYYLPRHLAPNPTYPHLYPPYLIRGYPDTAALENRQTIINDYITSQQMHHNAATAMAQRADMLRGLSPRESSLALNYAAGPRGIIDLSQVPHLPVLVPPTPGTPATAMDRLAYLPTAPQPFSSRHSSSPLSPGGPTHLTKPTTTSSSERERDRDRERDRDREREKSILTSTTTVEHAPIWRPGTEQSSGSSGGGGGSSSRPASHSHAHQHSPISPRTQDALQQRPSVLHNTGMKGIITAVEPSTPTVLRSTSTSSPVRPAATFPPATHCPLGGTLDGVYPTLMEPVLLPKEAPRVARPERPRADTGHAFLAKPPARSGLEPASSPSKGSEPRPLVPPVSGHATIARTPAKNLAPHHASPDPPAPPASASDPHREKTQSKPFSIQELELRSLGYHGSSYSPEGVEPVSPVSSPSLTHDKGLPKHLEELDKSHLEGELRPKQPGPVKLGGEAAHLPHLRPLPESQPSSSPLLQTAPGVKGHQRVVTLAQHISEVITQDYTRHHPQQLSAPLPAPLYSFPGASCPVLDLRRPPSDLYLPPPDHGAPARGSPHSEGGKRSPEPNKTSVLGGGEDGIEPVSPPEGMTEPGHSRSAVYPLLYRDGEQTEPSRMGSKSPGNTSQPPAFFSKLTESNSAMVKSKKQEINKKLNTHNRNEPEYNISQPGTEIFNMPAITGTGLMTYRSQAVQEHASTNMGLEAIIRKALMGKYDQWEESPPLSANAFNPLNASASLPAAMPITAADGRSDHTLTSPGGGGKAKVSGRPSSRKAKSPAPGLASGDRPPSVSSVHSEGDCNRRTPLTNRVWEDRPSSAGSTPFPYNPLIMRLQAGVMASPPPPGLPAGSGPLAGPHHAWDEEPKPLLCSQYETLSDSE
Sequence of Histone deacetylase 1 (Q13547 whole entry): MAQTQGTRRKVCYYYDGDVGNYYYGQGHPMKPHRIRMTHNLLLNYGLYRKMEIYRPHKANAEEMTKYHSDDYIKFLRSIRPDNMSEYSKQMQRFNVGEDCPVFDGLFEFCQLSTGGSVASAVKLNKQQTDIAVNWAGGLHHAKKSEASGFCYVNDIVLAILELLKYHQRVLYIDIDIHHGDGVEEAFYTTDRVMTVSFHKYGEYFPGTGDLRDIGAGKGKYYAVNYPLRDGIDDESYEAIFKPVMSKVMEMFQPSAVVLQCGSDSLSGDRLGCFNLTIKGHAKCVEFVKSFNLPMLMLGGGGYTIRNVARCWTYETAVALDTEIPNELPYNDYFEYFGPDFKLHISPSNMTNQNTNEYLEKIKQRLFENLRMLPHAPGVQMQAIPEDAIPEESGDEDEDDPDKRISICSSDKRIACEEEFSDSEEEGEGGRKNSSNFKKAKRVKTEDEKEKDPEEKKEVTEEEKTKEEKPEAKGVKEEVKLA

Regarding `Cc1ccc(NC(=O)CCCCCCC(=O)NO)cc1`, the IC50 in test [1] was 4100 nM; against Histone deacetylase 11, 78.6 nM; in test [2], 649 nM; in test [3], 12 nM; in test [4] it was 452 nM; against Histone deacetylase 2, 589 nM. The same molecule yielded a 50% inhibitory concentration (IC50) against Histone deacetylase 1 of 200 nM.

As for `O=C(CCCCC[C@H](NC(=O)[C@@H]1CC(=O)N1)C(=O)Nc1ccccc1)NO`, the IC50 is 2200 nM in test [1]; 135 nM on Histone deacetylase 11; 113 nM in test [2]; 3 nM in test [3]; 62 nM in test [4]; 89 nM against Histone deacetylase 2. 34 nM corresponded to half-maximal inhibition at Histone deacetylase 1 (IC50).

Turning to `O=C(CCCCC[C@H](NC(=O)[C@H]1CCC(=O)N1)C(=O)NCCc1ccccc1)NO`, the IC50 in test [1] came out at 4900 nM; against Histone deacetylase 11, 47.8 nM; in test [2], 210 nM; in test [3], 6 nM; in test [4], 144 nM; on Histone deacetylase 2, 180 nM. At Histone deacetylase 1, this molecule gave an IC50 of 77 nM.

With `O=C(CCCCC[C@H](NC(=O)C1CCNC1=O)C(=O)Nc1ccccc1)NO` (stereo not given in full), the IC50 in test [1] worked out at 4000 nM; against Histone deacetylase 11 it was 150 nM; in test [2], 147 nM; in test [3], 4 nM; in test [4], 74 nM; on Histone deacetylase 2, 238 nM. Besides, inhibition at Histone deacetylase 1 was half-maximal at 72 nM (IC50).

In the case of `Cc1cccc(NC(=O)[C@H](CCCCCC(=O)NO)NC(=O)[C@H]2CCC(=O)N2)c1`, the IC50 in test [1] stood at 500 nM; on Histone deacetylase 11 it was 15.5 nM; in test [2], 30.3 nM; in test [3] it was 3 nM; in test [4], 11 nM; against Histone deacetylase 2, 27 nM. Moreover, it took 7 nM to reach half-maximal inhibition against Histone deacetylase 1 (IC50).

Regarding `O=C(CCCCC[C@H](NC(=O)[C@H]1CCC(=O)N1)C(=O)Nc1cccc(C(F)(F)F)c1)NO`, the IC50 in test [1] worked out at 500 nM; against Histone deacetylase 11 it was 55.5 nM; in test [2] it was 10.6 nM; in test [3], 2 nM; in test [4] it was 2 nM; against Histone deacetylase 2, 8 nM. On Histone deacetylase 1, this molecule returned an IC50 of 2 nM.

As for `O=C(CCCCC[C@H](NC(=O)[C@@H]1CCCC(=O)N1)C(=O)Nc1ccccc1)NO`, the IC50 in test [1] is 2500 nM; at Histone deacetylase 11, 47 nM; in test [2], 51 nM; in test [3], 5 nM; in test [4], 20 nM; against Histone deacetylase 2, 89 nM. The molecule further returned an IC50 against Histone deacetylase 1 of 25 nM.

Consider `O=C(CCCCC[C@H](NC(=O)[C@H]1CCC(=O)N1)C(=O)Nc1ccccc1)NO`, for which the IC50 in test [1] was 4000 nM; on Histone deacetylase 11 it was 75 nM; in test [2], 93 nM; in test [3] it was 8 nM; in test [4] it was 67 nM; against Histone deacetylase 2 it was 142 nM. On Histone deacetylase 1, this molecule came in with an IC50 of 43 nM.

Consider `O=C(CCCCC[C@H](NC(=O)[C@@H]1CCCC(=O)N1)C(=O)NC1CCCC1)NO`, for which the IC50 in test [1] came to 2400 nM; at Histone deacetylase 11 it was 1440 nM; in test [2], 6830 nM; in test [3] it was 31 nM; in test [4] it was 5660 nM; at Histone deacetylase 2 it was 5040 nM. On Histone deacetylase 1, this molecule yielded an IC50 of 1450 nM.

On to `Cc1cccc(NC(=O)CCCCCCC(=O)NO)c1`, for which the IC50 in test [1] worked out at 800 nM; at Histone deacetylase 11, 1600 nM; in test [2] it was 503 nM; in test [3], 22 nM; in test [4] it was 216 nM; on Histone deacetylase 1, 197 nM.

Turning to `O=C(CCCCC[C@H](NC(=O)[C@@H]1CCCC(=O)N1)C(=O)NCCc1ccccc1)NO`, the IC50 in test [1] came to 8200 nM; on Histone deacetylase 11, 262 nM; in test [2], 227 nM; in test [3], 8 nM; in test [4], 539 nM; at Histone deacetylase 2, 956 nM. At Histone deacetylase 1, this molecule had an IC50 of 102 nM.

As for `O=C(CCCCC[C@H](NC(=O)C1CCCNC1=O)C(=O)Nc1ccccc1)NO` (stereo not given in full), the IC50 was 5100 nM in test [1]; 255 nM at Histone deacetylase 11; 244 nM in test [2]; 19 nM in test [3]; 116 nM in test [4]; 689 nM against Histone deacetylase 2. The same molecule showed an IC50 against Histone deacetylase 1 of 131 nM.

For `O=C(CCCCCCC(=O)Nc1cccc(C(F)(F)F)c1)NO`, the IC50 in test [1] amounted to 2500 nM; against Histone deacetylase 11, 75.1 nM; in test [2], 374 nM; in test [3], 6 nM; in test [4], 185 nM; on Histone deacetylase 2, 165 nM. This molecule also displayed an IC50 on Histone deacetylase 1 of 63 nM.

Regarding `Cc1ccc(NC(=O)[C@H](CCCCCC(=O)NO)NC(=O)[C@H]2CCC(=O)N2)cc1`, the IC50 in test [1] amounted to 600 nM; at Histone deacetylase 11, 127 nM; in test [2] it was 163 nM; in test [3], 4 nM; in test [4] it was 66 nM; on Histone deacetylase 2, 93 nM. On Histone deacetylase 1, this molecule had an IC50 of 32 nM.

Consider `O=C(CCCCCCC(=O)NC1CCCC1)NO`, for which the IC50 in test [1] turned out to be 21000 nM; against Histone deacetylase 11, 2630 nM; in test [2], 4890 nM; in test [3], 75 nM; in test [4], 3330 nM; against Histone deacetylase 2 it was 4390 nM. This molecule also showed an IC50 against Histone deacetylase 1 of 1790 nM.

In the case of `O=C(CCCCC[C@H](NC(=O)[C@@H]1CCC(=O)N1)C(=O)Nc1ccccc1)NO`, the IC50 came to 5400 nM in test [1]; 37 nM against Histone deacetylase 11; 125 nM in test [2]; 6 nM in test [3]; 89 nM in test [4]; 143 nM against Histone deacetylase 2. This molecule had an IC50 against Histone deacetylase 1 of 59 nM.

Take `O=C(CCCCC[C@H](NC(=O)C1C(=O)NCC1c1ccccc1)C(=O)Nc1ccccc1)NO` (stereo not given in full): the IC50 in test [1] is 2400 nM; at Histone deacetylase 11, 70 nM; in test [2] it was 88 nM; in test [3], 4 nM; in test [4] it was 14 nM; at Histone deacetylase 2, 110 nM. At Histone deacetylase 1, this molecule gave an IC50 of 33 nM.

With `O=C(CCCCCCC(=O)NCCc1ccccc1)NO`, the IC50 turned out to be 18200 nM in test [1]; 1130 nM against Histone deacetylase 11; 1350 nM in test [2]; 25 nM in test [3]; 3610 nM in test [4]; 5160 nM at Histone deacetylase 2. The molecule further gave an IC50 at Histone deacetylase 1 of 1140 nM.
